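Protocol summary: plate cells (96-well), add compound at 5 concentrations, incubate 48 h, interpolate endpoints linearly. GI50: concentration for 50% inhibition of growth. TGI: total growth inhibition.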
What was measured:
Assay in all cases: inhibition of tumour cell growth, NCI panel, 48 h
COLO 205 colon = system: COLO 205 colon
NCI-H460 lung = system: NCI-H460 lung
NCI-H23 lung = system: NCI-H23 lung
NCI-H226 lung = system: NCI-H226 lung
HCT-116 colon = system: HCT-116 colon
HOP-62 NSCLC = system: HOP-62 NSCLC
CCRF-CEM leukemia = system: CCRF-CEM leukemia
RPMI-8226 leukemia = system: RPMI-8226 leukemia
KM12 colon = system: KM12 colon
EKVX NSCLC = system: EKVX NSCLC
786-0 renal = system: 786-0 renal
SF-268 CNS = system: SF-268 CNS
BT-549 breast = system: BT-549 breast
HL-60(TB) leukemia = system: HL-60(TB) leukemia
M14 melanoma = system: M14 melanoma
SW-620 colon = system: SW-620 colon
SK-MEL-28 melanoma = system: SK-MEL-28 melanoma
MCF7 breast = system: MCF7 breast
SF-295 CNS = system: SF-295 CNS
OVCAR-4 ovarian = system: OVCAR-4 ovarian
U251 CNS = system: U251 CNS
MDA-MB-231 breast = system: MDA-MB-231 breast
CAKI-1 renal = system: CAKI-1 renal
MALME-3M melanoma = system: MALME-3M melanoma
HOP-92 NSCLC = system: HOP-92 NSCLC
HS 578T breast = system: HS 578T breast
SK-MEL-2 melanoma = system: SK-MEL-2 melanoma
HT29 colon = system: HT29 colon

## C[C@]12CC[C@@H]3c4ccc(O)cc4CC[C@H]3[C@@H]1Cc1cnc(N)nc12
COLO 205 colon
  GI50: 13.7 µM
  TGI: 27.6 µM
NCI-H460 lung
  GI50: 9.95 µM
  TGI: 24.9 µM
NCI-H23 lung
  GI50: 18.1 µM
  TGI: 41 µM
NCI-H226 lung
  GI50: 15.2 µM
  TGI: 33.8 µM
HCT-116 colon
  GI50: 23.6 µM
  TGI: 69.2 µM
HOP-62 NSCLC
  GI50: 25.5 µM
  TGI: 59.1 µM
CCRF-CEM leukemia
  GI50: 15.3 µM
  TGI: 40 µM
RPMI-8226 leukemia
  GI50: 12.7 µM
  TGI: 31.4 µM
KM12 colon
  GI50: 11.8 µM
  TGI: 26.8 µM
EKVX NSCLC
  GI50: 9.47 µM
  TGI: 34.9 µM
786-0 renal
  GI50: 23.3 µM
  TGI: 59.3 µM
SF-268 CNS
  GI50: 13.5 µM
  TGI: 38.8 µM
BT-549 breast
  GI50: 18.7 µM
  TGI: 53.2 µM
HL-60(TB) leukemia
  GI50: 22.1 µM
  TGI: > 100 µM
M14 melanoma
  GI50: 18.2 µM
  TGI: 36.4 µM
SW-620 colon
  GI50: 22.4 µM
  TGI: 45.9 µM
SK-MEL-28 melanoma
  GI50: 10.7 µM
  TGI: 26.1 µM
MCF7 breast
  GI50: 18.8 µM
  TGI: 47.7 µM
SF-295 CNS
  GI50: 15.2 µM
  TGI: 42.7 µM
OVCAR-4 ovarian
  GI50: 32.2 µM
  TGI: > 100 µM
U251 CNS
  GI50: 17.9 µM
  TGI: 41.6 µM
MDA-MB-231 breast
  GI50: 13.7 µM
  TGI: 32.8 µM
CAKI-1 renal
  GI50: 23.8 µM
  TGI: 49.8 µM
MALME-3M melanoma
  GI50: 15.6 µM
  TGI: 29.8 µM
HOP-92 NSCLC
  GI50: 11.7 µM
  TGI: 31.6 µM
HS 578T breast
  GI50: 18.4 µM
  TGI: 40.7 µM
SK-MEL-2 melanoma
  GI50: 26.9 µM
  TGI: > 100 µM
HT29 colon
  GI50: 52.9 µM
  TGI: > 100 µM
